Target: T1, GST-AMPKα2/ß1/γ1 complex (full-length human AMPKα2) (Homo sapiens, UniProt P54619+P54646+Q9Y478)
T1 construct: purchased Carna Biosciences 02-114; host or cells: baculovirus expression system
Assay: AMPK high ATP assay (TR-FRET-based AMPK activity inhibition assay)
Assay type: biochemical
Conditions: ATP concentration of 1 mM; median; read-out: AMPK high ATP assay IC50 [mol/l] (median)
Method: AMPK inhibitory activity of compounds of the present invention at an ATP concentration of 1 mM was quantified employing the TR-FRET-based AMPK activity inhibition assay as described in the following paragraphs.
Recombinant fusion protein of N-terminal Glutathion-S-Transferase (GST) and full-length human AMPKα2 [1-552(end) amino acids of accession number NP_006243.2] co-expressed with GST-PRKAB1 [1-270(end) amino acids of accession number NP_006244.2] and PRKAG1 [1-331(end) amino acids of accession number NP_002724.1] using a baculovirus expression system, purified as GST-AMPKα2/ß1/γ1 complex by using glutathione sepharose chromatography, activated with His-tagged CaMKK1 and subsequently purified by using glutathione sepharose chromatography, was purchased from Carna Biosciences (product number 02-114) and used as kinase. As substrate for the kinase reaction biotinylated peptide biotin-Ahx-HMRSAMSFAEPG (C-terminus in amide form) was used which can be purchased e.g. form the company Biosyntan (Berlin-Buch, Germany). For the assay 50 nl of a 100 fold concentrated solution of the test compound in DMSO was pipetted into either a black low volume 384 well microtiter plate or a black 1536 well microtiter plate (both Greiner Bio-One, Frickenhausen, Germany), 2 μl of a solution of GST-AMPKα2/ß1/γ1 in aqueous assay buffer [50 mM Hepes pH 7.5, 10 mM MgCl2, 5 mM β-glycerophosphate, 2.5 mM dithiothreitol (DTT), 0.5 mM EGTA, 0.01% (w/v) bovine γ-globulin (Sigma-Aldrich, #G5009), 0.01% (v/v) Triton X-100 (Sigma-Aldrich, #T9284)] were added and the mixture was incubated for 15 min at 22° C. to allow pre-binding of the test compounds to the enzyme before the start of the kinase reaction. Then the kinase reaction was started by the addition of 3 μl of a solution of adenosine-tri-phosphate (ATP, 1.67 mM=>final conc. in the 5 μl assay volume is 1 mM), adenosine-mono-phosphate (AMP, 3.33 μM=>final conc. in the 5 μl assay volume is 2 μM), and substrate (0.83 μM=>final conc. in the 5 μl assay volume is 0.5 μM) in assay buffer and the resulting mixture was incubated for a reaction time of 30 min at 22° C. The concentration of GST-AMPK α2/ß1/γ1 was adjusted depending of the activity of the enzyme lot and was chosen appropriate to have the assay in the linear range, a typical concentration was 0.08 nM. The reaction was stopped by the addition of 3 μl of a solution of TR-FRET detection reagents (0.2 μM streptavidine-XL665 [Cisbio Bioassays, Codolet, France] and 3.33 nM anti-phosho-Serine antibody [Merck Millipore, “STK antibody”, cat. #35-002] and 3.33 nM anti mouse IgG-Tb cryptate, a Terbium-cryptate labelled anti-mouse IgG antibody [Cisbio Bioassays, Codolet, France] in an aqueous EDTA-solution (166.7 mM EDTA, 0.06 (w/v) bovine serum albumin in 50 mM HEPES pH 7.5).
The resulting mixture was incubated 1 h at 22° C. to allow the formation of complex between the phosphorylated biotinylated peptide and the detection reagents. Subsequently the amount of phosphorylated substrate was evaluated by measurement of the resonance energy transfer from the Tb-cryptate to the streptavidine-XL665. Therefore, the fluorescence emissions at 620 nm and 665 nm after excitation at 350 nm was measured in a TR-FRET reader, e.g. a Pherastar FS (BMG Labtechnologies, Offenburg, Germany) or a Viewlux (Perkin-Elmer). The ratio of the emissions at 665 nm and at […] was taken as the measure for the amount of phosphorylated substrate. The data were normalised (enzyme reaction without inhibitor=0 inhibition, all other assay components but no enzyme=100% inhibition).

T1 sequence (P54646 whole entry): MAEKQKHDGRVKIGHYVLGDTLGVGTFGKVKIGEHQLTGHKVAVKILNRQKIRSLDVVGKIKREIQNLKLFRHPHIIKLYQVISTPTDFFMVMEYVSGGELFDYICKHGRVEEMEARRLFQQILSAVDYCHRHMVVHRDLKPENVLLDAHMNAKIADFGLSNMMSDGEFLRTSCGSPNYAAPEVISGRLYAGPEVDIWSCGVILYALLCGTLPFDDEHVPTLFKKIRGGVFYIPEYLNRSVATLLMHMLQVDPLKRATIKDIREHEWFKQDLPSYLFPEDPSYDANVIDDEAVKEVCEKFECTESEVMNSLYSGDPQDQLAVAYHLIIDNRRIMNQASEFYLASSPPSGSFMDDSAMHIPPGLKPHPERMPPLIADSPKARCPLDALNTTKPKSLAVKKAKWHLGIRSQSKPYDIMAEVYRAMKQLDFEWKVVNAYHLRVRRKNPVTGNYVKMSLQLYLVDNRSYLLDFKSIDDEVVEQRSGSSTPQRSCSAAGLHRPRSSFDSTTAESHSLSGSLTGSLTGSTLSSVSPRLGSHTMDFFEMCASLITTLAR
T1 sequence (Q9Y478 whole entry partner): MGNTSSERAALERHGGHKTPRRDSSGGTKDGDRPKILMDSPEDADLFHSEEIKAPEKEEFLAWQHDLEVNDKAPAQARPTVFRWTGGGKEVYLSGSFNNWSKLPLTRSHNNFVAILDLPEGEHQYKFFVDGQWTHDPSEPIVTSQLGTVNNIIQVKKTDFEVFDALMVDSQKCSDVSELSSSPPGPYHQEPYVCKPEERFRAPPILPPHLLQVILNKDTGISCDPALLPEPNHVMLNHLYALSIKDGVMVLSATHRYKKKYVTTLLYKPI
T1 sequence (P54619 whole entry partner): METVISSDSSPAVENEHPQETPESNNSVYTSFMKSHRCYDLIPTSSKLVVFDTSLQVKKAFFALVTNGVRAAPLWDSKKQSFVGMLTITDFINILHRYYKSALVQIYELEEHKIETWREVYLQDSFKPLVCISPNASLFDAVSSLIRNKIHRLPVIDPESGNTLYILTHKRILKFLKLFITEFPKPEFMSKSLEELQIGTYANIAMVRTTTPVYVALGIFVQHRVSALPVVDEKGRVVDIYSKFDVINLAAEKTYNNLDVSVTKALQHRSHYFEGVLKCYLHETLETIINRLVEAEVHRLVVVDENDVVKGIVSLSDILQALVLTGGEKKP

## CC1=C(C#N)C(c2cc3c(NC(=O)c4cn(C)nc4C(F)(F)F)n[nH]c3c(C)c2F)C(C#N)=C(C)N1C [Example 9, N-[5-(3,5-dicyano-1,2,6-trimethyl-1,4-dihydropyridin-4-yl)-6-fluoro-7-methyl-1H-indazol-3-yl]-1-methyl-3-(trifluoromethyl)-1H-pyrazole-4-carboxamide]
  IC50: 0.0122 µM

## CC1=C(C#N)C(c2cc3c(NC(=O)c4ccccc4Cl)n[nH]c3c(C(F)(F)F)c2F)C(C#N)=C(C)N1C [Example 32, 2-chloro-N-[5-(3,5-dicyano-1,2,6-trimethyl-1,4-dihydropyridin-4-yl)-6-fluoro-7-(trifluoromethyl)-1H-indazol-3-yl]benzamide]
  IC50: 0.0105 µM

## CCc1c(F)c(C2C(C#N)=C(C)N(C)C(C)=C2C#N)cc2c(NC(=O)c3ccccc3Cl)n[nH]c12 [Example 31, 2-chloro-N-[5-(3,5-dicyano-1,2,6-trimethyl-1,4-dihydropyridin-4-yl)-7-ethyl-6-fluoro-1H-indazol-3-yl]benzamide]
  IC50: 0.0715 µM

## CC1=C(C#N)C(c2cc3c(NC(=O)c4ccccc4Cl)n[nH]c3c(C)c2F)C(C#N)=C(C)N1C [Example 6, 2-chloro-N-[5-(3,5-dicyano-1,2,6-trimethyl-1,4-dihydropyridin-4-yl)-6-fluoro-7-methyl-1H-indazol-3-yl]benzamide]
  IC50: 0.00365 µM

## COCCn1cc(C(=O)Nc2n[nH]c3c(C)c(F)c(C4C(C#N)=C(C)N(C)C(C)=C4C#N)cc23)c(C(F)(F)F)n1 [Example 15, N-[5-(3,5-dicyano-1,2,6-trimethyl-1,4-dihydropyridin-4-yl)-6-fluoro-7-methyl-1H-indazol-3-yl]-1-(2-methoxyethyl)-3-(trifluoromethyl)-1H-pyrazole-4-carboxamide]
  IC50: 0.00776 µM

## CCn1nc(C)cc1C(=O)Nc1n[nH]c2c(I)c(F)c(C3C(C#N)=C(C)N(C)C(C)=C3C#N)cc12 [Example 1, N-[5-(3,5-dicyano-1,2,6-trimethyl-1,4-dihydropyridin-4-yl)-6-fluoro-7-iodo-1H-indazol-3-yl]-1-ethyl-3-methyl-1H-pyrazole-5-carboxamide]
  IC50: 0.0626 µM

## CCc1ccccc1C(=O)Nc1n[nH]c2c(C)c(F)c(C3C(C#N)=C(C)N(C)C(C)=C3C#N)cc12 [Example 8, N-[5-(3,5-dicyano-1,2,6-trimethyl-1,4-dihydropyridin-4-yl)-6-fluoro-7-methyl-1H-indazol-3-yl]-2-ethylbenzamide]
  IC50: 0.0151 µM

## CC1=C(C#N)C(c2cc3c(NC(=O)c4ccc(OCCN5CCCC5)cc4)n[nH]c3c(C)c2F)C(C#N)=C(C)N1C [Example 13, N-[5-(3,5-dicyano-1,2,6-trimethyl-1,4-dihydropyridin-4-yl)-6-fluoro-7-methyl-1H-indazol-3-yl]-4-[2-(pyrrolidin-1-yl)ethoxy]benzamide]
  IC50: 0.0134 µM

## CC1=C(C#N)C(c2cc3c(NC(=O)c4cc(F)ccc4C(F)(F)F)n[nH]c3c(C)c2F)C(C#N)=C(C)N1C [Example 10, N-[5-(3,5-dicyano-1,2,6-trimethyl-1,4-dihydropyridin-4-yl)-6-fluoro-7-methyl-1H-indazol-3-yl]-5-fluoro-2-(trifluoromethyl)benzamide]
  IC50: 0.0262 µM

## CC1=C(C#N)C(c2cc3c(NC(=O)C(C)c4cccnc4)n[nH]c3c(C)c2F)C(C#N)=C(C)N1C (racemic) [Example 21, (rac)-N-[5-(3,5-dicyano-1,2,6-trimethyl-1,4-dihydropyridin-4-yl)-6-fluoro-7-methyl-1H-indazol-3-yl]-2-(pyridin-3-yl)propanamide]
  IC50: 0.084 µM

## CC1=C(C#N)C(c2cc3c(NC(=O)c4c(F)cccc4Cl)n[nH]c3c(C)c2F)C(C#N)=C(C)N1C [Example 11, 2-chloro-N-[5-(3,5-dicyano-1,2,6-trimethyl-1,4-dihydropyridin-4-yl)-6-fluoro-7-methyl-1H-indazol-3-yl]-6-fluorobenzamide]
  IC50: 0.0089 µM

## CCc1c(F)c(C2C(C#N)=C(C)N(C)C(C)=C2C#N)cc2c(NC(=O)c3ccnn3C(C)C)n[nH]c12 [Example 28, N-[5-(3,5-dicyano-1,2,6-trimethyl-1,4-dihydropyridin-4-yl)-7-ethyl-6-fluoro-1H-indazol-3-yl]-1-(propan-2-yl)-1H-pyrazole-5-carboxamide]
  IC50: 0.138 µM

## CC1=C(C#N)C(c2cc3c(NC(=O)c4cnn(CCN5CCCC5)c4C(F)(F)F)n[nH]c3c(C)c2F)C(C#N)=C(C)N1C [Example 19, N-[5-(3,5-dicyano-1,2,6-trimethyl-1,4-dihydropyridin-4-yl)-6-fluoro-7-methyl-1H-indazol-3-yl]-1-[2-(pyrrolidin-1-yl)ethyl]-5-(trifluoromethyl)-1H-pyrazole-4-carboxamide]
  IC50: 0.0376 µM

## CC1=C(C#N)C(c2cc3c(NC(=O)c4c(F)cccc4F)n[nH]c3c(C)c2F)C(C#N)=C(C)N1C [Example 7, N-[5-(3,5-dicyano-1,2,6-trimethyl-1,4-dihydropyridin-4-yl)-6-fluoro-7-methyl-1H-indazol-3-yl]-2,6-difluorobenzamide]
  IC50: 0.0196 µM
